Experimental data taken from US6737383B1, “Herbicidal oxadiazolidines” (priority 1999, dated 2004).

How the values were obtained:
bedstraw = experiment: Test B pre/postemergence bedstraw; type: in vivo, Galium aparine
How it was run: (§1)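 Response is a visual 0-to-10 score relative to untreated plants, where 0 means no effect and 10 means complete control, taken twelve to sixteen days after application. Treatments went onto soil at planting and onto foliage of 1- to 4-leaf plants, using a surfactant-containing non-phytotoxic solvent.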

blackgrass = experiment: Test B pre/postemergence blackgrass; type: in vivo, Alopecurus myosuroides
How it was run: as §1

surinam grass = experiment: Test B pre/postemergence surinam grass; type: in vivo, Brachiaria decumbens
How it was run: as §1

cocklebur = experiment: Test B pre/postemergence cocklebur; type: in vivo, Xanthium strumarium
How it was run: as §1

corn = experiment: Test B pre/postemergence corn; type: in vivo, Zea mays
How it was run: as §1

crabgrass = experiment: Test B pre/postemergence crabgrass; type: in vivo, Digitaria sanguinalis
How it was run: as §1

giant foxtail = experiment: Test B pre/postemergence giant foxtail; type: in vivo, Setaria faberii
How it was run: as §1

morningglory = experiment: Test B pre/postemergence morningglory; type: in vivo, Ipomoea hederacea
How it was run: as §1

pigweed = experiment: Test B pre/postemergence pigweed; type: in vivo, Amaranthus retroflexus
How it was run: as §1

rape = experiment: Test B pre/postemergence rape; type: in vivo, Brassica napus
How it was run: as §1

soybean = experiment: Test B pre/postemergence soybean; type: in vivo, Glycine max
How it was run: as §1

sugar beet = experiment: Test B pre/postemergence sugar beet; type: in vivo, Beta vulgaris
How it was run: as §1

velvetleaf = experiment: Test B pre/postemergence velvetleaf; type: in vivo, Abutilon theophrasti
How it was run: as §1

wheat = experiment: Test B pre/postemergence wheat; type: in vivo, Triticum aestivum
How it was run: as §1

wild oat = experiment: Test B pre/postemergence wild oat; type: in vivo, Avena fatua
How it was run: as §1

purple nutsedge = experiment: Test B pre/postemergence purple nutsedge; type: in vivo, Cyperus rotundus
How it was run: as §1

rice = experiment: Test B flood test rice; type: in vivo, Oryza sativa; conditions: Pre-emergence
How it was run: (§2)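 Flood test on plants grown to the 2-leaf stage; treated plants kept in greenhouse twelve to sixteen days, then visually rated against controls on a 0 (no effect) to 10 (complete control) scale.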

smallflower flatsedge = experiment: Test B flood test smallflower flatsedge; type: in vivo, Cyperus difformis; conditions: Pre-emergence
How it was run: as §2

duck salad = experiment: Test B flood test duck salad; type: in vivo, Heteranthera limosa; conditions: Pre-emergence
How it was run: as §2

bamyardgrass = experiment: Test B flood test barnyardgrass; type: in vivo, Echinochloa crus-galli; conditions: Pre-emergence
How it was run: as §2

[1] = Preemergence, Rate 62 g/ha, scale of 0 to 10 where 0 is no effect and 10 is complete control
[2] = Preemergence, Rate 250 g/ha, scale of 0 to 10 where 0 is no effect and 10 is complete control
[3] = Preemergence, Rate 500 g/ha, scale of 0 to 10 where 0 is no effect and 10 is complete control
[4] = Rate 62 g/ha, Postemergence, scale of 0 to 10 where 0 is no effect and 10 is complete control
[5] = Rate 125 g/ha, Postemergence, scale 0 to 10
[6] = Rate 125 g/ha, Preemergence, scale of 0 to 10 where 0 is no effect and 10 is complete control
[7] = Rate 500 g/ha, Postemergence, scale 0 to 10, 0 no effect, 10 complete control
[8] = Rate 1000 g/ha, scale 0 to 10 (0 no effect, 10 complete control)
[9] = Rate 125 g/ha, flood test species, scale 0 to 10 where 0 is no effect and 10 is complete control
[10] = Rate 250 g/ha, flood-test species, scale 0 to 10, 0 is no effect, 10 is complete control
[11] = Rate 500 g/ha, flood test species, scale 0 to 10 (0 no effect, 10 complete control)

Which results are given for CCOC(=O)C(C)N(C(=O)n1oc(=O)n(CC)c1=O)c1ccc(F)cc1 (stereo not drawn) [Compound 248]?
Bedstraw plant response rating (bedstraw; [1]): 0; Bedstraw plant response rating (bedstraw; [2]): 0; Plant response rating, Bedstraw (bedstraw; [3]): 0; Bedstraw plant response rating (bedstraw; [4]): 0; Bedstraw plant response rating (bedstraw; [5]): 0; Bedstraw plant response rating (bedstraw; [6]): 0; Plant response rating (0 to 10; 0 is no effect, 10 is complete control), Bedstraw (bedstraw; Rate 250 g/ha, Postemergence): 0; Bedstraw plant response rating (bedstraw; [7]): 0; Blackgrass plant response rating (blackgrass; [1]): 0; Blackgrass plant response rating (blackgrass; [2]): 0; Plant response rating, Blackgrass (blackgrass; [3]): 0; Blackgrass plant response rating (blackgrass; [4]): 0; Blackgrass plant response rating (blackgrass; [5]): 0; Blackgrass plant response rating (blackgrass; [6]): 0; Plant response rating (0 to 10; 0 is no effect, 10 is complete control), Blackgrass (blackgrass; Rate 250 g/ha, Postemergence): 0; Blackgrass plant response rating (blackgrass; [7]): 0; B. signalgrass plant response rating (surinam grass; [1]): 0; B. signalgrass plant response rating (surinam grass; [2]): 0; Plant response rating, B. signalgrass (surinam grass; [3]): 0; B. signalgrass plant response rating (surinam grass; [4]): 0; B. signalgrass plant response rating (surinam grass; Rate 125 g/ha, Postemergence, scale 0 (no effect) to 10 (complete control)): 0; B. signalgrass plant response rating (surinam grass; [6]): 0; Plant response rating (0 to 10; 0 is no effect, 10 is complete control), B. signalgrass (surinam grass; Rate 250 g/ha, Postemergence): 0; B. signalgrass plant response rating (surinam grass; [7]): 0; Cocklebur plant response rating (cocklebur; [1]): 0; Cocklebur plant response rating (cocklebur; [2]): 0; Plant response rating, Cocklebur (cocklebur; [3]): 0; Cocklebur plant response rating (cocklebur; [4]): 0; Cocklebur plant response rating (cocklebur; [5]): 0; Cocklebur plant response rating (cocklebur; [6]): 0; Plant response rating (0 to 10; 0 is no effect, 10 is complete control), Cocklebur (cocklebur; Rate 250 g/ha, Postemergence): 0; Cocklebur plant response rating (cocklebur; [7]): 0; Corn plant response rating (corn; [1]): 0; Corn plant response rating (corn; [2]): 0; Plant response rating, Corn (corn; [3]): 0; Corn plant response rating (corn; [4]): 0; Corn plant response rating (corn; [5]): 0; Corn plant response rating (corn; [6]): 0; Plant response rating (0 to 10; 0 is no effect, 10 is complete control), Corn (corn; Rate 250 g/ha, Postemergence): 0; Corn plant response rating (corn; [7]): 0; Crabgrass plant response rating (crabgrass; [1]): 0; Crabgrass plant response rating (crabgrass; [2]): 0; Plant response rating, Crabgrass (crabgrass; [3]): 0; Crabgrass plant response rating (crabgrass; [6]): 0; Plant response rating (0 to 10; 0 is no effect, 10 is complete control), Crabgrass (crabgrass; Rate 250 g/ha, Postemergence): 0; Crabgrass plant response rating (crabgrass; [7]): 0; Giant foxtail plant response rating (giant foxtail; [1]): 0; Giant foxtail plant response rating (giant foxtail; [2]): 0; Plant response rating, Giant foxtail (giant foxtail; [3]): 0; Giant foxtail plant response rating (giant foxtail; [6]): 0; Plant response rating (0 to 10; 0 is no effect, 10 is complete control), Giant foxtail (giant foxtail; Rate 250 g/ha, Postemergence): 0; Giant foxtail plant response rating (giant foxtail; [7]): 0; Morningglory plant response rating (morningglory; [1]): 0; Morningglory plant response rating (morningglory; [2]): 0; Plant response rating, Morningglory (morningglory; [3]): 0; Morningglory plant response rating (morningglory; [6]): 0; Plant response rating (0 to 10; 0 is no effect, 10 is complete control), Morningglory (morningglory; Rate 250 g/ha, Postemergence): 0; Morningglory plant response rating (morningglory; [7]): 0; Redroot pigweed plant response rating (pigweed; [1]): 0; Redroot pigweed plant response rating (pigweed; [2]): 0; Plant response rating, Redroot pigweed (pigweed; [3]): 0; Redroot pigweed plant response rating (pigweed; [6]): 0; Plant response rating (0 to 10; 0 is no effect, 10 is complete control), Redroot pigweed (pigweed; Rate 250 g/ha, Postemergence): 0; Redroot pigweed plant response rating (pigweed; [7]): 0; Rape plant response rating (rape; [1]): 0; Rape plant response rating (rape; [2]): 0; Plant response rating, Rape (rape; [3]): 0; Rape plant response rating (rape; [6]): 0; Plant response rating (0 to 10; 0 is no effect, 10 is complete control), Rape (rape; Rate 250 g/ha, Postemergence): 0; Rape plant response rating (rape; [7]): 0; Soybean plant response rating (soybean; [1]): 0; Soybean plant response rating (soybean; [2]): 0; Plant response rating, Soybean (soybean; [3]): 0; Soybean plant response rating (soybean; [6]): 0; Soybean plant response rating (soybean; [7]): 1; Sugarbeets plant response rating (sugar beet; [1]): 0; Sugarbeets plant response rating (sugar beet; [2]): 0; Plant response rating, Sugarbeets (sugar beet; [3]): 0; Sugarbeets plant response rating (sugar beet; [6]): 0; Sugarbeets plant response rating (sugar beet; [7]): 0; Velvetleaf plant response rating (velvetleaf; [1]): 0; Velvetleaf plant response rating (velvetleaf; [2]): 0; Plant response rating, Velvetleaf (velvetleaf; [3]): 0; Velvetleaf plant response rating (velvetleaf; [6]): 0; Velvetleaf plant response rating (velvetleaf; [7]): 0; Wheat plant response rating (wheat; [1]): 0; Wheat plant response rating (wheat; [2]): 0; Plant response rating, Wheat (wheat; [3]): 0; Wheat plant response rating (wheat; [6]): 0; Wheat plant response rating (wheat; [7]): 0; Wild oats plant response rating (wild oat; [1]): 0; Wild oats plant response rating (wild oat; [2]): 0; Plant response rating, Wild oats (wild oat; [3]): 0; Wild oats plant response rating (wild oat; [6]): 0; Wild oats plant response rating (wild oat; [7]): 0; Nutsedge plant response rating (purple nutsedge; [1]): 0; Nutsedge plant response rating (purple nutsedge; [2]): 0; Plant response rating, Nutsedge (purple nutsedge; [3]): 0; Nutsedge plant response rating (purple nutsedge; [6]): 0; Plant response rating (0 to 10; 0 is no effect, 10 is complete control), Nutsedge (purple nutsedge; Rate 250 g/ha, Postemergence): 0; Nutsedge plant response rating (purple nutsedge; [7]): 0; Rice plant response rating (rice; [8]): 0; Rice plant response rating (rice; [9]): 0; Rice plant response rating (rice; [10]): 0; Rice plant response rating (rice; [11]): 0; S. Flatsedge plant response rating (smallflower flatsedge; [8]): 0; S. Flatsedge plant response rating (smallflower flatsedge; [9]): 0; S. Flatsedge plant response rating (smallflower flatsedge; [10]): 0; S. Flatsedge plant response rating (smallflower flatsedge; [11]): 0; Ducksalad plant response rating (duck salad; [8]): 0; Ducksalad plant response rating (duck salad; [9]): 0; Ducksalad plant response rating (duck salad; [10]): 0; Ducksalad plant response rating (duck salad; [11]): 0; Barnyardgrass plant response rating (bamyardgrass; [8]): 0; Barnyardgrass plant response rating (bamyardgrass; [9]): 0; Barnyardgrass plant response rating (bamyardgrass; [10]): 0; Barnyardgrass plant response rating (bamyardgrass; [11]): 0
